These results are taken from US4000299A, “1-(Imidazol-1-yl)-1-[4-(4-chlorophenyl)phenoxy]-3,3-dimethylbutan-2-one, its salts and a process for their use” (Bayer Aktiengesellschaft, priority 1974, dated 1976).

≈ marks a conversion by molar mass, not a printed value. Read-outs that look alike come from different tables or passages of the source. A value given as a limit tells only on which side of the number the result lay.

For data set [1], the system named is Candida albicans. Description: series dilution test, MIC. In kind it is cell-based.
Another data set has as its system Microsporon felinum. Description: series dilution test, MIC. It is filed as cell-based. The note with it: Table B.
For another data set, the system named is Aspergillus spec. Put plainly: series dilution test, MIC. It is filed as cell-based.
In another data set the test system is Trich. ment. Description: series dilution test, MIC. In kind it is cell-based.
The nature of data set [2]: pharmacokinetics after oral administration. The note with it: serum, 50 mg/kg of body weight, mice and guinea pigs, read-out: serum peak concentrations. In kind it is in vivo. As to the method:
c. Guideline data on the pharmacokinetics after oral administration. The preparations claimed are resorbed well on oral administration to mice and guinea pigs and after doses of 50 mg/kg of body weight give serum peak concentrations of 4-6 γ/ml for the case of the hydrochloride.

Another data set has as its system Torulopsis glab. Put plainly: series dilution test, MIC. The conditions noted are these: Table A. In kind it is cell-based.
The next data set relates to Staph. aureus. Description: series dilution test, MIC. It is filed as cell-based. The note with it: Table A; for MIC: Staphylococcus aureus.
The next data set relates to Microsporon canis. Put plainly: series dilution test, MIC. It is filed as cell-based. The conditions noted are these: for MIC: read-out: MIC values.
The next data set deals with Cryptococcus neof. Description: series dilution test, MIC. It is filed as cell-based. The conditions noted are these: Table A.
The next data set concerns Coccidioides immitis. Description: microbe, parasite or virus in culture. The note with it: for MIC: read-out: MIC values; for MIC values: Table A. It is filed as cell-based.
The test system of another data set is Trichomonas vaginalis. Put plainly: series dilution test, MIC. The conditions noted are these: Table A. It is filed as cell-based.
The subject of the next data set is Pityrosporum ovale. Description: series dilution test, MIC. In kind it is cell-based. The conditions noted are these: Table A; for MIC: Malassezia furfur.
In the next data set the test system is Sporothrix Schenckii. Description: series dilution test, MIC. In kind it is cell-based. The note with it: Table A.
Data set [3] concerns Candida albicans. Description: experimental candidosis in mice, oral administration. It is filed as in vivo, White mice of the CF1 SPF strain. As to the method: I. on candidosis in mice.
White mice of the CF1 SPF strain are infected with 1-3 × 10^6 Candida albicans cells intravenously by puncture of the tail vein. Untreated control animals die from the 3rd to the 6th day after infection as a result of the candidosis of the organs which develops. If the preparations claimed are given orally in doses of 2 × 6.25 - 2 × 150 mg/kg of body weight, starting from the day of infection and up to the 5th day after infection, the following survival rates are observed: […]

Setting [4] is: 2 × 6.25 mg/kg of body weight, 6.25 mg/kg.
Where [5] appears, read: 2 × 12.5 mg/kg of body weight, 12.5 mg/kg.
Setting [6] is: 2 × 25 mg/kg of body weight, 25 mg/kg.

With `O=C(c1ccccc1)C(Oc1c(Cl)cccc1Cl)n1ccnc1` (stereo not drawn), the MIC was 4 mg/L (≈ 11.5 µM) in the data set with Candida albicans [1] (Table B); 40 mg/L (≈ 115 µM) with Microsporon felinum; 100 mg/L (≈ 288 µM) in the data set on Aspergillus spec. (Table B); 4 mg/L (≈ 11.5 µM) in the data set with Trich. ment. (Table B, Trichophyton ment.).
As for `OC(O)(c1ccccc1)C(Oc1cccc(Cl)c1)n1ccnc1` (stereo not drawn), the MIC in the data set on Candida albicans [1] (Table B) was determined as 4 mg/L (≈ 12.1 µM); in the data set on Microsporon felinum it was 40 mg/L (≈ 121 µM); against Aspergillus spec. (Table B), 40 mg/L (≈ 121 µM); against Trich. ment. (Table B, Trichophyton ment.), 4 mg/L (≈ 12.1 µM).
Take `O=C(c1ccccc1)C(Oc1ccc(Cl)cc1)(c1ccccc1)n1ccnc1` (stereo not drawn): the MIC against Candida albicans [1] (Table B) stood at 10 mg/L (≈ 25.7 µM); in the data set with Microsporon felinum it was 40 mg/L (≈ 103 µM); in the data set with Aspergillus spec. (Table B) it was 10 mg/L (≈ 25.7 µM); with Trich. ment. (Table B, Trichophyton ment.) it was 10 mg/L (≈ 25.7 µM).
For `O=C(c1ccccc1)C(Oc1cccc(Cl)c1)n1ccnc1` (stereo not drawn), the MIC in the data set with Candida albicans [1] (Table B) stood at 10 mg/L (≈ 32 µM); in the data set on Microsporon felinum, 40 mg/L (≈ 128 µM); in the data set on Aspergillus spec. (Table B), 40 mg/L (≈ 128 µM); against Trich. ment. (Table B, Trichophyton ment.), 4 mg/L (≈ 12.8 µM).
For the compound `CC(C)(C)C(=O)C(Cn1ccnc1)Oc1ccc(Cl)cc1` (stereo not drawn), the MIC in the data set with Candida albicans [1] (Table B) was 4 mg/L (≈ 13 µM); with Aspergillus spec. (Table B) it was 8 mg/L (≈ 26.1 µM); in the data set on Trich. ment. (Table B, Trichophyton ment.), 4 mg/L (≈ 13 µM).
With `CC(C)(C)C(=O)C(Cn1ccnc1)Oc1ccc(Br)cc1` (stereo not drawn), the MIC with Candida albicans [1] (Table B) was 4 mg/L (≈ 11.4 µM); against Aspergillus spec. (Table B) it was 4 mg/L (≈ 11.4 µM); against Trich. ment. (Table B, Trichophyton ment.), 8 mg/L (≈ 22.8 µM).
As for `CC(C)(C)C(=O)C(Cn1ccnc1)Oc1ccccc1-c1ccccc1` (stereo not drawn), the MIC worked out at 4 mg/L (≈ 11.5 µM) in the data set with Candida albicans [1] (Table B); 8 mg/L (≈ 23 µM) in the data set on Aspergillus spec. (Table B); 8 mg/L (≈ 23 µM) with Trich. ment. (Table B, Trichophyton ment.).
`CC(C)(C)C(=O)C(Cn1ccnc1)Oc1ccc(F)cc1` (stereo not drawn): the MIC against Candida albicans [1] (Table B) came out at 4 mg/L (≈ 13.8 µM); against Aspergillus spec. (Table B), 4 mg/L (≈ 13.8 µM); in the data set with Trich. ment. (Table B, Trichophyton ment.), 8 mg/L (≈ 27.6 µM).
As for `CC(C)(C)C(=O)C(Oc1ccc(-c2ccc(Cl)cc2)cc1)n1ccnc1.Cl` (stereo not drawn) [Example 1, 1-(imidazol-1-yl)-1-[4-(4-chlorophenyl)phenoxy]-3,3-dimethyl-butan-2-one hydrochloride], the Cmax in data set [2] was 4 to 6 µg/mL.
Turning to `COC1=CC(=O)C[C@@H](C)[C@]12Oc1c(Cl)c(OC)cc(OC)c1C2=O` [Griseofulvin, griseofulvin], the MIC in the data set on Candida albicans [1] (Table A) was more than 100 mg/L; in the data set on Torulopsis glab. it was more than 100 mg/L; against Staph. aureus, more than 100 mg/L; with Microsporon canis, 5 to 10 mg/L (≈ 14.2 to 28.3 µM); with Aspergillus spec. (Table A), 40 to 100 mg/L (≈ 113 to 283 µM); against Cryptococcus neof. it was more than 100 mg/L. Besides, the MIC was more than 100 mg/L in the data set with Coccidioides immitis; 5 to 10 mg/L (≈ 14.2 to 28.3 µM) in the data set on Trich. ment. (Table A, Trich. ment.); more than 1000 mg/L in the data set with Trichomonas vaginalis; more than 100 mg/L with Pityrosporum ovale; more than 100 mg/L with Sporothrix Schenckii (Sporothrix schenckii).
As to `C[C@@H]1[C@H](O)[C@@H](C)/C=C/C=C/CC/C=C/C=C/C=C/C=C/C(O[C@H]2O[C@H](C)[C@@H](O)[C@H](N)[C@@H]2O)CC2O[C@](O)(CC(O)C(O)CCC(O)CC(O)CC(O)CC(=O)O[C@H]1C)CC(O)C2C(=O)O` (stereo partly drawn) [Nystatin, nystatin], the MIC values was 5 mg/L (≈ 5.4 µM) in the data set with Candida albicans [1] (Table A); 5 mg/L (≈ 5.4 µM) in the data set on Torulopsis glab.; more than 100 mg/L against Staph. aureus; 20 to 40 mg/L with Microsporon canis (Table A, Microsporon canis); 40 to 100 mg/L against Aspergillus spec. (Table A); 4 to 10 mg/L in the data set on Cryptococcus neof.. Moreover, the MIC values in the data set with Coccidioides immitis is 40 mg/L (≈ 43.2 µM); in the data set on Trich. ment. (Table A, Trich. ment.), 20 mg/L (≈ 21.6 µM); against Trichomonas vaginalis, > 1,000 γ/ml; in the data set on Sporothrix Schenckii, 40 mg/L (≈ 43.2 µM). In addition, the “Survival rates on the 6th day after infection” value (shortened to “Survival rates on the 6th day”) is less than 10% in the data set on Candida albicans [3] (2 × 6.25 mg/kg of body weight); less than 10% with Candida albicans [3] (2 × 12.5 mg/kg of body weight); less than 10% with Candida albicans [3] (2 × 25 mg/kg of body weight); less than 10% in the data set with Candida albicans [3] (2 × 50 mg/kg of body weight); 30% with Candida albicans [3] (2 × 100 mg/kg of body weight); 50% in the data set with Candida albicans [3] (2 × 150 mg/kg of body weight).
With `CC(C)(C)C(=O)C(Oc1ccc(-c2ccc(Cl)cc2)cc1)n1ccnc1` (stereo not drawn) [drawing 4], the MIC is 2 to 4 mg/L (≈ 5.42 to 10.8 µM) with Candida albicans [1] (Table A); 2 mg/L (≈ 5.42 µM) against Torulopsis glab.; 8 mg/L (≈ 21.7 µM) with Staph. aureus; less than 1 mg/L with Microsporon canis (Table A, Microsporon canis); less than 1 mg/L against Aspergillus spec. (Table A); 1 to 2 mg/L (≈ 2.71 to 5.42 µM) against Cryptococcus neof.. For the same compound, the MIC is 0.1 mg/L (≈ 0.271 µM) in the data set with Coccidioides immitis; less than 1 mg/L against Trich. ment. (Table A, Trich. ment.); 250 mg/L (≈ 678 µM) in the data set on Trichomonas vaginalis; less than 1 mg/L against Pityrosporum ovale. In addition, the MIC values against Sporothrix Schenckii turned out to be 0.1 mg/L (≈ 0.271 µM).
Consider `CC(C)(C)C(=O)C(Oc1ccc(-c2ccc(Cl)cc2)cc1)n1ccnc1` (stereo not drawn) [drawing 5], for which the MIC values against Candida albicans [1] (Table A) is 2 mg/L (≈ 5.42 µM); in the data set on Torulopsis glab. it was 2 mg/L (≈ 5.42 µM); in the data set with Staph. aureus, 4 mg/L (≈ 10.8 µM); against Microsporon canis (Table A, Microsporon canis) it was less than 1 mg/L; with Aspergillus spec. (Table A), less than 1 mg/L; with Cryptococcus neof., 1 to 2 mg/L. Besides, the MIC values against Coccidioides immitis is 0.1 mg/L (≈ 0.271 µM); in the data set with Trich. ment. (Table A, Trich. ment.), less than 1 mg/L; in the data set with Trichomonas vaginalis it was 250 µg/mL (≈ 678 µM); against Pityrosporum ovale it was less than 1 mg/L; against Sporothrix Schenckii it was 0.5 mg/L (≈ 1.36 µM).
Take `CC(C)(C)C(=O)C(Oc1ccc(-c2ccc(Cl)cc2)cc1)n1ccnc1` (stereo not drawn) [drawing 14]: the “Survival rates on the 6th day” value worked out at 55% in the data set with Candida albicans [3] (setting [4]); 70% with Candida albicans [3] (setting [5]); 80% in the data set with Candida albicans [3] (setting [6]); 100% in the data set with Candida albicans [3] (2 × 50 mg/kg of body weight); 100% in the data set on Candida albicans [3] (2 × 100 mg/kg of body weight); 100% in the data set on Candida albicans [3] (2 × 150 mg/kg of body weight).
Take `CC(C)(C)C(=O)C(Oc1ccc(-c2ccc(Cl)cc2)cc1)n1ccnc1` (stereo not drawn) [drawing 15]: the “Survival rates on the 6th day” value in the data set on Candida albicans [3] (setting [4]) is 95%; with Candida albicans [3] (setting [5]) it was 95%; in the data set with Candida albicans [3] (setting [6]) it was 100%; in the data set with Candida albicans [3] (2 × 50 mg/kg of body weight), 100%; in the data set on Candida albicans [3] (2 × 100 mg/kg of body weight), 100%; in the data set on Candida albicans [3] (2 × 150 mg/kg of body weight), 100%.
